{"source": "patent US8809274B2", "about": "“Adhesive hemostatic agent based on porcine atelocollagen and method for production thereof” (Dalim Biotech Co., Ltd., priority 2008, dated 2014)", "tested_on": "blood", "assay": "Effect of tranexamic acid on blood coagulation (Example 5)", "format": "cell-based", "conditions": "Experimental Condition F: 0.25 mL of 0.02/0.05/0.1 wt % tranexamic acid in distilled water alone; 0.5 mL blood", "experimental": "While tranexamic acid, a hemostatic agent with antifibrinolytic activity, was used under the above-described conditions, the time taken to induce blood clots was monitored.\n—Experimental Condition A • 1. 0.5 mL of blood was placed on each Petri-dish. • 2. A mixture of 0.25 mL of the solution of Example 1 and 0.25 mL of the 1 wt % calcium chloride solution containing 0.71 wt % of DOPA and 0.02 wt % of tranexamic acid was added to the Petri-dish of 1. • 3. A mixture of 0.25 mL of the solution of Example 1 and 0.25 mL of the 1 wt % calcium chloride solution containing 0.71 wt % of DOPA and 0.05 wt % of tranexamic acid was added to the Petri-dish of 1. • 4. A mixture of 0.25 mL of the solution of Example 1 and 0.25 mL of the 1 wt % calcium chloride solution containing 0.71 wt % of DOPA and 0.1 wt % of tranexamic acid was added to the Petri-dish of 1. • 5. Reactions in the Petri-dishes were observed.\n—Experimental Condition B • 1. 0.5 mL of blood was placed on each Petri-dish. • 2. A mixture of 0.25 mL of the solution of Example 1 and 0.25 mL of the 1.5 wt % calcium chloride solution containing 0.67 wt % of DOPA and 0.02 wt % of tranexamic acid was added to the Petri-dish of 1. • 3. A mixture of 0.25 mL of the solution of Example 1 and 0.25 mL of the 1.5 wt % calcium chloride solution containing 0.67 wt % of DOPA and 0.05 wt % of tranexamic acid was added to the Petri-dish of 1. • 4. […]"}
{"smiles": "NC[C@H]1CC[C@H](C(=O)O)CC1", "note": "[tranexamic acid]", "values": [{"measurement": "blood coagulation rate", "result": "at lower rates than when in the presence of the esterified atelocollagen"}]}
